Earlier results on four molecules are cited in patent publication US20040033957A1, “FAP-activated anti-tumor prodrugs” (Boehringer Ingelheim Pharma GmbH & Co. KG, priority 2002, published 2004).

The target of one data set is T1, FAPα dimers (Homo sapiens, UniProt Q12884).
T1 sequence (Q12884 1-760): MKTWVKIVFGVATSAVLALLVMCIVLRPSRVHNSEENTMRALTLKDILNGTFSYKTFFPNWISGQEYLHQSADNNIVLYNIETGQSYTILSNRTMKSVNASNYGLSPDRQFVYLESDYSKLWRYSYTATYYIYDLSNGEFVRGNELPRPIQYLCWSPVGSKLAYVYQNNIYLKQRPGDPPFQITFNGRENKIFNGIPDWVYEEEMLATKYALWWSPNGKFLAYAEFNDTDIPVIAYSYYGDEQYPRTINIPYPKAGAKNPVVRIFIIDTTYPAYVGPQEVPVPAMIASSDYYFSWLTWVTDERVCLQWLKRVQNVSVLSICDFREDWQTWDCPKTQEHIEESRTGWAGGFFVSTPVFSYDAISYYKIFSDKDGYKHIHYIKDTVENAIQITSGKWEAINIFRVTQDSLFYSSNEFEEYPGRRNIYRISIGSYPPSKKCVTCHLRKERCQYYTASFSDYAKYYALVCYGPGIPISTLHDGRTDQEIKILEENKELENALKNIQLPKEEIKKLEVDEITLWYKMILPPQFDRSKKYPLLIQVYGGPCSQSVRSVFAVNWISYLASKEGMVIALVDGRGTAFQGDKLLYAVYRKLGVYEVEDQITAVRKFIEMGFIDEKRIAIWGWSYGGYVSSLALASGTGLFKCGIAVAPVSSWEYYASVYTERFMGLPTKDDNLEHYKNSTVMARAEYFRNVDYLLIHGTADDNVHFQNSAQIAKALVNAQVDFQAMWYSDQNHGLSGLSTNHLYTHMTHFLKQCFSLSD
The settings on record: membrane overlay assay.

For data set [1] the following is noted: directly in the circulation, humans.
A further data set has as its system xenograft tumor. Conditions: mouse xenograft tumor models.

Where a SMILES comes first, the peptide text is derived from it. The star is where a group is joined. AFC = O=c1cc(C(F)(F)F)c2ccc(N*)cc2o1

Regarding `C[C@H](N)C(=O)N1CCC[C@H]1C(=O)Nc1ccc2c(C(F)(F)F)cc(=O)oc2c1` [Ala-Pro-7-amino-4-trifluoromethyl coumarin] (H-Ala-Pro-{AFC}), the “cleavage by FAPα dimers” value at FAPα dimers is on record as “able to cleave”.
Turning to `NCC(=O)N1CCC[C@H]1C(=O)Nc1ccc2c(C(F)(F)F)cc(=O)oc2c1` [Gly-Pro-7-amino-4-trifluoromethyl coumarin] (H-Gly-Pro-{AFC}), the “cleavage by FAPα dimers” value on FAPα dimers was “able to cleave”.
Take `NCCCC[C@H](N)C(=O)N1CCC[C@H]1C(=O)Nc1ccc2c(C(F)(F)F)cc(=O)oc2c1` [Lys-Pro-7-amino-4-trifluoromethyl coumarin] (H-Lys-Pro-{AFC}): at FAPα dimers, the “cleavage by FAPα dimers” value is reported as “able to cleave”.
Take `COc1cccc2c1C(=O)c1c(O)c3c(c(O)c1C2=O)C[C@@](O)(C(=O)CO)C[C@@H]3O[C@H]1C[C@H](NC(=O)[C@@H](N)CC(C)C)[C@H](O)[C@H](C)O1` [N-L-leucyl-doxorubicin]: the tolerability result (humans) is listed as “comparably poor tolerability”. Moreover, the myelosuppression entry (patients, correlated with AUC of released doxorubicin) is listed as “Myelosuppression was seen”. For the same molecule, in data set [1], the “fraction of the prodrug metabolized to free doxorubicin” value is listed as “roughly half”. Further, in the data set with xenograft tumor, the “efficacy as compared to doxorubicin” value was “improved efficacy”.
